# Data as given in patent US20010051181A1, “NOVEL FORMULATIONS FOR THE TRANSDERMAL ADMINISTRATION OF ASIMADOLINE” (priority 1997, published 2001).
# Structures can show the parent of a compound that is named as a salt.
# Assay: in vitro skin flux of asimadoline through human cadaver epidermis
# Type: in vitro ADME
# Details: representative range; depending on the drug form, permeation enhancer, and if an in-line adhesive is present
# Method: Release of asimadoline from transdermal systems into aqueous medium was measured over 24 hours at 35° C. Each system had its exposed edges masked. The systems were then mounted on a Teflon® holder of a release rate rod using nylon mesh and nickel wire. A known volume of receptor solution (50 mM Na2PO4, pH 5.5) was then placed in a test tube and equilibrated at 35° C. The test tube was placed in a water bath and maintained at 35° C. The Teflon rod with attached system was then reciprocated within the test tube by attaching the rod to a motor which caused constant vertical mixing.
# At given time intervals, the entire receptor solution was removed from the test tubes and replaced with an equal volume of fresh receptor solutions previously equilibrated at 35° C. The receptor solutions were stored in capped vials at 4° C. until assayed for asimadoline content by HPLC. From the drug concentration and the volume of the receptor solutions, the area of the system and the time interval, the release rate of the drug from the system was calculated as follows: (drug concentration×volume of receptor)/(area×time)=release rate (μg/cm^2 hr). […]
# Transdermal systems set forth in Table 1 were prepared according to Example 1 and used to measure permeation through human cadaver skin. […] Asimadoline permeation through the epidermis was then measured according to the procedure set forth in Example 1. […]
compound,measurement,value
"CN(C(=O)C(c1ccccc1)c1ccccc1)[C@H](CN1CC[C@H](O)C1)c1ccccc1 [asimadoline hydrochloride, N-[(aS)-α-[[(3S)-3-Hydroxy-1-pyrrolidinyl]methyl]benzyl]-N-methyl-2,2-diphenylacetamide]",in vitro skin flux through human skin,0.2-10 mg/cm^2·hr
